The source of these data is patent US9458113B2 (Boehringer Ingelheim International GmbH, priority 2014, dated 2016).

Series [1] is described as follows: Drug transport across human Caco-2 cells. It is filed as in vitro ADME. Particulars: apparent permeability coefficient, Caco-2 monolayers, pH 7.2, 37° C.; for Papp A→B at 10 µM: apical-to-basal (absorptive), read-out: PEAB; for Papp B→A at 10 µM: basal-to-apical (secretory), read-out: PEBA. The text has this:
Assay for Determination of Drug Transport Across Human Caco-2 Cells
The assay provides information on the potential of a compound to pass the cell membrane, on the extent of oral absorption as well as on whether the compound is actively transported by uptake and/or efflux transporters. For the measurement of permeability across polarized, confluent human cancer colon carcinoma cells 2 (Caco-2) cell monolayers grown on permeable filter supports are used as the in vitro absorption model.
Apparent permeability coefficients (PE) of the compounds across the Caco-2 monolayers are measured (pH 7.2, 37° C.) in apical-to-basal (AB) (absorptive) and basal-to-apical (BA) (secretory) transport direction. AB permeability (PEAB) represents drug absorption from the intestine into the blood and BA permeability (PEBA) drug secretion from the blood back into the intestine via both passive permeability as well as active transport mechanisms mediated by efflux and uptake transporters that are expressed on the Caco-2 cells. The compounds are assigned to permeability/absorption classes by comparison of the AB permeabilities with the AB permeabilities of reference compounds with known in vitro permeability and oral absorption in the human. Identical or similar permeabilities in both transport directions indicate passive permeation, vectorial permeability points to additional active transport mechanisms. […] Active transport is concentration-dependently saturable.
Caco-2 cells (1-2*10^5 cells/cm^2 area) are seeded on filter inserts (Costar transwell polycarbonate or PET filters, 0.4 μm pore size) and cultured (DMEM) for 10 to 25 days. Compounds are dissolved in appropriate solvent (like DMSO, […] stock solutions). Stock solutions are diluted with HTP-4 buffer (128.13 mM NaCl, 5.36 mM KCl, 1 mM MgSO4, 1.8 mM CaCl2, 4.17 mM NaHCO3, 1.19 mM Na2HPO4x7H2O, 0.41 mM NaH2PO4xH2O, 15 mM HEPES, 20 mM glucose, pH 7.2) to prepare the transport solutions (typically 10 μM compound, final DMSO<=0.5%). The transport solution (TL) is applied to the apical or basolateral donor side for measuring A-B or B-A permeability (3 filter replicates), respectively. The receiver side contains HTP-4 buffer supplemented with 2% BSA. Samples are collected at the start and end of experiment from the donor and at various time intervals for up to 2 hours also from the receiver side for concentration measurement by LC-MS/MS or scintillation counting. Sampled receiver volumes are replaced with fresh receiver solution.
The apparent permeability coefficients (PEAB and PEBA) of selected compounds in the Caco-2 drug transport assay described above are listed in Table 16.
(Caco-2 cells form a polarised layer with tight junctions and transporters.)

A further series concerns human hepatocytes. Briefly: Metabolic stability with human hepatocytes. It is filed as in vitro ADME. Particulars: 1 μM test compound, well stirred model. The protocol: Assay for the Determination of Metabolic Stability with Human Hepatocytes
The metabolic degradation of the test compound is assayed in a human hepatocyte suspension. Human hepatocytes (typically cryopreserved) are incubated in an appropriate buffer system (e.g. Dulbecco's modified eagle medium plus 3.5 μg glucagon/500 mL, 2.5 mg insulin/500 mL and 3.75 mg/500 mL hydrocortison) containing 5% species serum. Following a (typically) […] preincubation in an incubator (37° C., 10% CO2), 5 μl of test compound solution (80 μM; from […] stock solution in DMSO diluted 1:25 with medium) are added into 395 μl hepatocyte suspension (cell density in the range 0.25-5*10^6 cells/mL, typically 1*10^6 cells/mL; final concentration of test compound 1 μM, final DMSO concentration 0.05%). The cells are incubated for six hours (incubator, orbital shaker) and samples (25 μl) are taken at 0, 0.5, 1, 2, 4 and 6 hours. Samples are transferred into acetonitrile and pelleted by centrifugation (5 min) The supernatant is transferred to a new 96-deepwell plate, evaporated under nitrogen and resuspended. The decline of parent compound is analyzed by LC-MS/MS.
The intrinsic clearance CL_[…] is calculated as follows: CL_[…]=Dose/AUC=(C0/CD)/(AUD+clast/k)*1,000/60
(C0: initial concentration in the incubation [μM], CD: cell density of vital cells [10^6 cells/mL], AUD: area under the data [μM*h], clast: concentration of last data point [μM], k: slope of the regression line for parent decline [h^−1])
The calculated in vitro hepatic intrinsic clearance Qh can be scaled up to the intrinsic in vivo hepatic clearance and used to predict hepatic in vivo blood clearance (CL) by the use of a liver model (well stirred model): CL_[…]_INVIVO [ml/min/kg]=(CL_[…] [μL/min/10^6 cells]*hepatocellularity [10^6 cells/g liver]*liver factor [g/kg bodyweight])/1,000 CL [ml/min/kg]=CL_[…]_INVIVO [ml/min/kg]*hepatic blood flow [ml/min/kg]/(CL_[…]_INVIVO [ml/min/kg]+hepatic blood flow [ml/min/kg]) Qh [%]=CL [ml/min/kg]/hepatic blood flow [ml/min/kg])
(Hepatocellularity, human: 120*10^6 cells/g liver; liver factor, human: 25.7 g/kg bodyweight; blood flow, human: 21 ml/(min*kg))
The calculated in-vitro hepatic intrinsic clearance values of selected compounds in the metabolic stability assay with human hepatocytes described above are listed in Table 15.

Series [2] has as its target neutrophil elastase in zymosan-stimulated human plasma (Homo sapiens (Human), UniProt P08246). The series can be described thus: Neutrophil elastase inhibitory activity in human plasma. Type of series: biochemical. Particulars: human plasma from zymosan-stimulated blood.
Description: Assay for the Determination of Neutrophil Elastase Inhibitory Activity in Human Plasma
Citrated blood from human healthy donors is mixed with zymosan suspension and incubated at room temperature. This leads to the stimulation of neutrophils and the release of neutrophil elastase into the plasma. The stimulated blood is centrifuged to generate the neutrophil elastase enriched plasma.
Various concentrations of the neutrophil elastase inhibitor are incubated with plasma. […] A dose response curve is generated to calculate the EC50 of the inhibitor.
The nature of series [3]: Aqueous solubility (High Throughput Method). It is filed as physicochemical. Particulars: McIlvaine buffer pH 6.8 with 2.5% DMSO, kinetic from dmso stock, McIlvaine buffer pH 6.8, 2.5% DMSO, 24 h shaking. On the procedure:
Assay for Determination of Aqueous Solubility (“High Throughput Method”)
Starting from a […] DMSO stock solution, aliquots are diluted with acetonitrile/water (1/1) and McIlvaine buffer pH 6.8, respectively. After 24 h of shaking, the solutions or suspensions are filtered and analyzed by LC-UV. The amount dissolved in buffer is compared to the amount dissolved in the acetonitrile/water (1/1) solution. Solubility is measured from 0.001 to 0.125 mg/ml at a DMSO concentration of 2.5%. If more than 90% of the compound is dissolved in buffer, the value is marked with “>”.

The next series concerns the target cytochrome P450 2C8 (Homo sapiens (Human), UniProt P10632). Briefly: Cytochrome P450 2C8 inhibition. As to conditions: human liver microsomes, Amodiaquine deethylation; read-out: IC50 (CYP 2C8). Type of series: in vitro ADME. The text has this:
Assay for Determination of Cytochrome P450 2C8 Inhibition
(§1) (I=inhibitor concentration, S=slope factor, B=background activity)
(In general: Microsomes from liver hold many membrane-bound enzymes, among them those of drug oxidation.)

A further series has as its target cytochrome P450 2C9 (Homo sapiens (Human), UniProt P11712). The series can be described thus: Cytochrome P450 2C9 inhibition. It is filed as in vitro ADME. As to conditions: human liver microsomes, Diclofenac hydroxylation; read-out: IC50 (CYP 2C9).
Source text: Assay for Determination of Cytochrome P450 2C9 Inhibition
as §1

Molecules are shown by their SMILES. In brackets after ≈: the same amount, converted by molar mass.

Sequence of cytochrome P450 2C9 (P11712 whole entry): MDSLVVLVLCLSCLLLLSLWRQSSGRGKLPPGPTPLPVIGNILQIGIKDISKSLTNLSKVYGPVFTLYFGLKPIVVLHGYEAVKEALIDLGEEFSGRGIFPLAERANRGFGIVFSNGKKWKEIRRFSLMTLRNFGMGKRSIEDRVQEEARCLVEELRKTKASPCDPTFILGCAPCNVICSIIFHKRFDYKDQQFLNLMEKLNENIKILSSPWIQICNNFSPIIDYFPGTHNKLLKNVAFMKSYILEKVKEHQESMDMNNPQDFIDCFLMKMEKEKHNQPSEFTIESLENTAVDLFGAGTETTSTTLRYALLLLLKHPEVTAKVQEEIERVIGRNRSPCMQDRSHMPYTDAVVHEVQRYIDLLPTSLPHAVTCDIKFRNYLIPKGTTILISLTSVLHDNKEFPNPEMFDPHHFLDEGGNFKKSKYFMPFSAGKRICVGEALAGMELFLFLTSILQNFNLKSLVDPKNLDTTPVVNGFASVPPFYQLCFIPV
Sequence of neutrophil elastase in zymosan-stimulated human plasma (P08246 30-247): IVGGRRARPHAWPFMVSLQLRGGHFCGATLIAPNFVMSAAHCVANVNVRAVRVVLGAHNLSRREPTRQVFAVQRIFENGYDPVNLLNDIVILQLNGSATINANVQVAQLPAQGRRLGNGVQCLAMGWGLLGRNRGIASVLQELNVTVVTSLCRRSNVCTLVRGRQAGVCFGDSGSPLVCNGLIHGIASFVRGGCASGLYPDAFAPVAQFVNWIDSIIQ
Sequence of cytochrome P450 2C8 (P10632 whole entry): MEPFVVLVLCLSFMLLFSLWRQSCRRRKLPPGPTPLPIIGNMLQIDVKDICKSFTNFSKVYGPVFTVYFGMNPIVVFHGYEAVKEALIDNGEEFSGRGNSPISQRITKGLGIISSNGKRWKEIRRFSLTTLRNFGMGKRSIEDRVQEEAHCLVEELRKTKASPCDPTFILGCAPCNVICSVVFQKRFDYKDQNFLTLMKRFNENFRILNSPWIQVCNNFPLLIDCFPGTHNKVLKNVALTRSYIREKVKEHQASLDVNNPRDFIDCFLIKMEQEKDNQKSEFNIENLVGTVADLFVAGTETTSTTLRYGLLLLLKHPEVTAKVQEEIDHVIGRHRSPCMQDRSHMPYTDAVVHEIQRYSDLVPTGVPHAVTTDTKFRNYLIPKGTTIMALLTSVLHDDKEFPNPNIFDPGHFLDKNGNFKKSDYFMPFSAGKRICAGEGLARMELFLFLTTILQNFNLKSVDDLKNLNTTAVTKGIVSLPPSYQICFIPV

The EC50 is the concentration that produces a half-maximal response. A low value points to a more potent agent. Broadly, the solubility is the dissolved amount per volume that the medium holds. Read a low solubility as a poorly soluble substance. For orientation: IC50 means the concentration that gives 50% inhibition. Regarding `CN1C(=O)N(c2cccc(C(F)(F)F)c2)C2=C(C(=O)CC2)[C@H]1c1ccc(C#N)cc1C(N)=O` [Example 2, 5-Cyano-2-[(R)-3-methyl-2,5-dioxo-1-(3-trifluoromethyl-phenyl)-2,3,4,5,6,7-hexahydro-1H-cyclopentapyrimidin-4-yl]-benzamide], the Papp A→B at 10 µM in series [1] came to 48 nm/s. Moreover, in series [1], the Papp B→A at 10 µM is 510 nm/s. Also, in the series on human hepatocytes, the Qh stood at 12%. In series [2], this molecule gave a 50% effective concentration (EC50) of 0.001 µM. Also, in series [3], the solubility at 24 h was 0.084 mg/mL (≈ 185 µM). In addition, the IC50 at cytochrome P450 2C8 and on cytochrome P450 2C9 was over 50 µM each time.
In the case of `CN1C(=O)N(c2cccc(C(F)(F)F)c2)C2=C(C(=O)CC2)[C@H]1c1ccc(C#N)cc1CNC(C)(C)C` [Example 24, 3-(tert-Butylamino-methyl)-4-[(R)-3-methyl-2,5-dioxo-1-(3-trifluoromethyl-phenyl)-2,3,4,5,6,7-hexahydro-1H-cyclopentapyrimidin-4-yl]-benzonitrile], in series [1], the Papp A→B at 10 µM came to 210 nm/s and the Papp B→A at 10 µM worked out at 840 nm/s. Besides, in the series on human hepatocytes, the Qh is 10%. Moreover, the EC50 in series [2] stood at 0.007 µM. Moreover, in series [3], the concentration in solution (solubility at 24 h) was 0.048 mg/mL (≈ 96.7 µM). Besides, the half-inhibitory concentration (IC50) at cytochrome P450 2C8 is over 50 µM. Besides, the IC50 at cytochrome P450 2C9 is over 50 µM.
As to `CN1C(=O)N(c2cccc(C(F)(F)F)c2)C2=C(C(=O)CC2)[C@H]1c1ccc(C#N)cc1-c1ccc(=O)n(C)c1` [Example 23, 4-[(R)-3-Methyl-2,5-dioxo-1-(3-trifluoromethyl-phenyl)-2,3,4,5,6,7-hexahydro-1H-cyclopentapyrimidin-4-yl]-3-(1-methyl-6-oxo-1,6-dihydro-pyridin-3-yl)-benzonitrile], in series [1], the Papp A→B at 10 µM amounted to 66 nm/s and the Papp B→A at 10 µM was 870 nm/s. In addition, in the series with human hepatocytes, the Qh amounted to 13%. Further, the response in series [2] was half-maximal at 0.001 µM (EC50). The molecule also yielded a solubility at 24 h in series [3] of 0.053 mg/mL (≈ 102 µM). In addition, the IC50 at cytochrome P450 2C8 was over 50 µM. Also, at cytochrome P450 2C9, the IC50 was over 50 µM.
